Experimental data taken from the NIST ThermoML archive (doi:10.1021/je200640q).
Numbers after ± are expanded uncertainties.

Key:
[1] = Crystal; DTA
[2] = Molar enthalpy of transition or fusion; conditions: Crystal; DSC

- Normal melting temperature [1]: 156.50 ± 0.5 °C
- Molar enthalpy of transition or fusion [2]: 7.34 ± 0.215 kcal/mol
Compound: CC(C)(c1ccc(O)cc1)c1ccc(O)cc1 [2,2-(4',4''-dihydroxy)diphenylpropane]
